From PubChem BioAssay (NCI)
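Assay format: 96-well plates, 48-hour exposure. TGI: total growth inhibition.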

Tests used:
Assay in all cases: NCI tumour cell line growth inhibition, 48 h
SK-OV-3 ovarian = test system: SK-OV-3 ovarian
OVCAR-5 ovarian = test system: OVCAR-5 ovarian
DMS 114 small cell lung = test system: DMS 114 small cell lung
NCI-H226 lung = test system: NCI-H226 lung
OVCAR-3 ovarian = test system: OVCAR-3 ovarian
HT29 colon = test system: HT29 colon
IGROV1 ovarian = test system: IGROV1 ovarian
DMS 273 small cell lung = test system: DMS 273 small cell lung
K-562 leukemia = test system: K-562 leukemia
HOP-62 NSCLC = test system: HOP-62 NSCLC
MCF7 breast = test system: MCF7 breast
SN12K1 renal = test system: SN12K1 renal
NCI-H23 lung = test system: NCI-H23 lung
A549 NSCLC = test system: A549 NSCLC
XF 498 CNS = test system: XF 498 CNS
EKVX NSCLC = test system: EKVX NSCLC
UACC-257 melanoma = test system: UACC-257 melanoma
COLO 205 colon = test system: COLO 205 colon
SK-MEL-2 melanoma = test system: SK-MEL-2 melanoma
SF-539 CNS = test system: SF-539 CNS
KM12 colon = test system: KM12 colon
SNB-78 CNS = test system: SNB-78 CNS
DLD-1 colon = test system: DLD-1 colon
HCC-2998 colon = test system: HCC-2998 colon
U251 CNS = test system: U251 CNS
SW-620 colon = test system: SW-620 colon
A498 renal = test system: A498 renal
UACC-62 melanoma = test system: UACC-62 melanoma
SNB-75 CNS = test system: SNB-75 CNS
SNB-19 CNS = test system: SNB-19 CNS
NCI-H522 lung = test system: NCI-H522 lung
MOLT-4 leukemia = test system: MOLT-4 leukemia
KM20L2 colon = test system: KM20L2 colon
HCT-116 colon = test system: HCT-116 colon
OVCAR-8 ovarian = test system: OVCAR-8 ovarian
LOX IMVI melanoma = test system: LOX IMVI melanoma
HCT-15 colon = test system: HCT-15 colon
CCRF-CEM leukemia = test system: CCRF-CEM leukemia
NCI-H460 lung = test system: NCI-H460 lung
UO-31 renal = test system: UO-31 renal
NCI/ADR-RES ovarian = test system: NCI/ADR-RES ovarian
HL-60(TB) leukemia = test system: HL-60(TB) leukemia
OVCAR-4 ovarian = test system: OVCAR-4 ovarian
RPMI-8226 leukemia = test system: RPMI-8226 leukemia
SK-MEL-5 melanoma = test system: SK-MEL-5 melanoma
SF-295 CNS = test system: SF-295 CNS
SN12C renal = test system: SN12C renal
RXF 393 renal = test system: RXF 393 renal
SF-268 CNS = test system: SF-268 CNS
SK-MEL-28 melanoma = test system: SK-MEL-28 melanoma
MALME-3M melanoma = test system: MALME-3M melanoma
HOP-92 NSCLC = test system: HOP-92 NSCLC
M19-MEL melanoma = test system: M19-MEL melanoma
CAKI-1 renal = test system: CAKI-1 renal
P388/ADR leukemia = test system: P388/ADR leukemia
P388 leukemia = test system: P388 leukemia

## COC(=O)c1ccc(N=NN(C)COc2ccc([N+](=O)[O-])cc2)cc1
SK-OV-3 ovarian
  TGI: > 100 µM
OVCAR-5 ovarian
  TGI: > 100 µM
DMS 114 small cell lung
  TGI: > 100 µM
NCI-H226 lung
  TGI: > 100 µM
OVCAR-3 ovarian
  TGI: > 100 µM
HT29 colon
  TGI: > 100 µM
IGROV1 ovarian
  TGI: > 100 µM
DMS 273 small cell lung
  TGI: > 100 µM
K-562 leukemia
  TGI: > 100 µM
HOP-62 NSCLC
  TGI: > 100 µM
MCF7 breast
  TGI: > 100 µM
SN12K1 renal
  TGI: > 100 µM
NCI-H23 lung
  TGI: > 100 µM
A549 NSCLC
  TGI: > 100 µM
XF 498 CNS
  TGI: > 100 µM
EKVX NSCLC
  TGI: > 100 µM
UACC-257 melanoma
  TGI: > 100 µM
COLO 205 colon
  TGI: > 100 µM
SK-MEL-2 melanoma
  TGI: > 100 µM
SF-539 CNS
  TGI: > 100 µM
KM12 colon
  TGI: > 100 µM
SNB-78 CNS
  TGI: > 100 µM
DLD-1 colon
  TGI: > 100 µM
HCC-2998 colon
  TGI: > 100 µM
U251 CNS
  TGI: > 100 µM
SW-620 colon
  TGI: > 100 µM
A498 renal
  TGI: > 100 µM
UACC-62 melanoma
  TGI: > 100 µM
SNB-75 CNS
  TGI: > 100 µM
SNB-19 CNS
  TGI: > 100 µM
NCI-H522 lung
  TGI: > 100 µM
MOLT-4 leukemia
  TGI: > 100 µM
KM20L2 colon
  TGI: > 100 µM
HCT-116 colon
  TGI: > 100 µM
OVCAR-8 ovarian
  TGI: > 100 µM
LOX IMVI melanoma
  TGI: > 100 µM
HCT-15 colon
  TGI: > 100 µM
CCRF-CEM leukemia
  TGI: > 100 µM
NCI-H460 lung
  TGI: > 100 µM
UO-31 renal
  TGI: > 100 µM
NCI/ADR-RES ovarian
  TGI: > 100 µM
HL-60(TB) leukemia
  TGI: 52.5 µM
OVCAR-4 ovarian
  TGI: > 100 µM
RPMI-8226 leukemia
  TGI: > 95.3 µM
SK-MEL-5 melanoma
  TGI: > 100 µM
SF-295 CNS
  TGI: > 100 µM
SN12C renal
  TGI: > 100 µM
RXF 393 renal
  TGI: > 100 µM
SF-268 CNS
  TGI: > 100 µM
SK-MEL-28 melanoma
  TGI: > 100 µM
MALME-3M melanoma
  TGI: > 100 µM
HOP-92 NSCLC
  TGI: > 100 µM
M19-MEL melanoma
  TGI: > 100 µM
CAKI-1 renal
  TGI: > 100 µM
P388/ADR leukemia
  TGI: > 100 µM
P388 leukemia
  TGI: > 100 µM
